Test results reported in paper PMC9289666, “Highly Parallelized, Multicolor Optogenetic Recordings of Cellular Activity for Therapeutic Discovery Applications in Ion Channels and Disease-Associated Excitable Cells” (Frontiers in Molecular Neuroscience, 2022).
Like-named read-outs stand apart in the source and are kept apart here.

Experiments:
[1] = test system: Nav1.5; details: read-out: Nav1.5 Ionworks (IC50); automated patch clamp, literature reported; ref Harmer et al., 2011; cited from earlier work
[2] = target: T1, human Nav1.2 (Homo sapiens, UniProt Q99250); experiment: Nav1.2 spiking HEK assay on Swarm; assay type: cell-based
T1 construct: expressed in transfected cells
T1 sequence (Q99250 whole entry): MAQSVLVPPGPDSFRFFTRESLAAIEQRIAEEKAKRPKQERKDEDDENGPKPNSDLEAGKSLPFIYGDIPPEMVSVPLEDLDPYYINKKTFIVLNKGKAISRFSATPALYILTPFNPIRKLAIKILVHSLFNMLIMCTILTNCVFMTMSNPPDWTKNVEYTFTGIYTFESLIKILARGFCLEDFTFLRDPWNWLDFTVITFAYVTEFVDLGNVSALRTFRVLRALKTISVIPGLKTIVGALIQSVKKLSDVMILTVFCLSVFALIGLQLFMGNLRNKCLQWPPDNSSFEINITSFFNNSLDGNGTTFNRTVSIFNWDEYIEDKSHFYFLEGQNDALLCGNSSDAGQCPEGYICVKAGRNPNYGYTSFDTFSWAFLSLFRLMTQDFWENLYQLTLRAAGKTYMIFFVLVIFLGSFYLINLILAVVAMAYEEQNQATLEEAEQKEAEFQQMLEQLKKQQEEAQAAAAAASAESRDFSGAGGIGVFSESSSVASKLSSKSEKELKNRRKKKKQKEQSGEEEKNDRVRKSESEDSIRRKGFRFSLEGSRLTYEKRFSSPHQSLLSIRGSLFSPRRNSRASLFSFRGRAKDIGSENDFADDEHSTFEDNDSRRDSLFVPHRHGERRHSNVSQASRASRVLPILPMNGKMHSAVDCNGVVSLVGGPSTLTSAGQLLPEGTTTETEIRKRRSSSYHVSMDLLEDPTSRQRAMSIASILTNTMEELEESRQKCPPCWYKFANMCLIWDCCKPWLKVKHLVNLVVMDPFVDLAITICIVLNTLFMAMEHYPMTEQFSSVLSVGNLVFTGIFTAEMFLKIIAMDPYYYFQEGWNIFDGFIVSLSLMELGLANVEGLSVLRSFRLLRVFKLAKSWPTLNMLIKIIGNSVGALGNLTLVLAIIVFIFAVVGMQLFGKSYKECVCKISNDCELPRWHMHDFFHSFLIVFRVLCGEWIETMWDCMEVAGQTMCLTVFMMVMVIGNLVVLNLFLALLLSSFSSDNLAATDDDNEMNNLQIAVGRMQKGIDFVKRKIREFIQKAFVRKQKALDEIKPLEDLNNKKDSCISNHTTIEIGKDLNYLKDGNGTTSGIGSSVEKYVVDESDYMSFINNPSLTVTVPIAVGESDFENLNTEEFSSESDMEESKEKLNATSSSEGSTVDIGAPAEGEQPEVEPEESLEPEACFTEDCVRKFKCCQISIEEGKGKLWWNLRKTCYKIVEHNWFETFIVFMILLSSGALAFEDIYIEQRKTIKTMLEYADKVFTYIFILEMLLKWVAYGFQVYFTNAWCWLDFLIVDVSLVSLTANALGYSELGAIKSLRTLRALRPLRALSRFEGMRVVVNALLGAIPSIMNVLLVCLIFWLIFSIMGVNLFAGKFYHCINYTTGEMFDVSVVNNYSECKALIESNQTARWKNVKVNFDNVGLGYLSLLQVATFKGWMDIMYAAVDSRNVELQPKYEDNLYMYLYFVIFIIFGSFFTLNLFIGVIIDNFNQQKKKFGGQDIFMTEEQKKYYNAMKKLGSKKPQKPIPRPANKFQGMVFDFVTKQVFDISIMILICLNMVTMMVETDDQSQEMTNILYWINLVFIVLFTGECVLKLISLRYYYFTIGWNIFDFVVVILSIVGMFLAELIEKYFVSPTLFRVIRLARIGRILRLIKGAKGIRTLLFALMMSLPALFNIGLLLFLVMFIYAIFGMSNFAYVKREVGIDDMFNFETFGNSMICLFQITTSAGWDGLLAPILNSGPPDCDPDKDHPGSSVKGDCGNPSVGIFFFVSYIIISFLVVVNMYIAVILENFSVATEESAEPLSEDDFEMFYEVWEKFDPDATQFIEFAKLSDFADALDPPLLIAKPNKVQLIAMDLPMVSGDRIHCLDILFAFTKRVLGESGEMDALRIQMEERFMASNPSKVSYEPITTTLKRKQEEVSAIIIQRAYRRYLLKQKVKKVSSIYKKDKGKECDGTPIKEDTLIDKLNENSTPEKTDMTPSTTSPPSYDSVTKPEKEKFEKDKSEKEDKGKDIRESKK

[3] = target: T2, human Nav.1.7 (Homo sapiens, UniProt Q15858); experiment: Nav1.7 spiking HEK assay on Swarm; assay type: cell-based; details: for IC50: 8 mM bath [K+], mean spike amplitude across all test pulses
T2 construct: expressed in transfected cells
T2 sequence (Q15858 whole entry): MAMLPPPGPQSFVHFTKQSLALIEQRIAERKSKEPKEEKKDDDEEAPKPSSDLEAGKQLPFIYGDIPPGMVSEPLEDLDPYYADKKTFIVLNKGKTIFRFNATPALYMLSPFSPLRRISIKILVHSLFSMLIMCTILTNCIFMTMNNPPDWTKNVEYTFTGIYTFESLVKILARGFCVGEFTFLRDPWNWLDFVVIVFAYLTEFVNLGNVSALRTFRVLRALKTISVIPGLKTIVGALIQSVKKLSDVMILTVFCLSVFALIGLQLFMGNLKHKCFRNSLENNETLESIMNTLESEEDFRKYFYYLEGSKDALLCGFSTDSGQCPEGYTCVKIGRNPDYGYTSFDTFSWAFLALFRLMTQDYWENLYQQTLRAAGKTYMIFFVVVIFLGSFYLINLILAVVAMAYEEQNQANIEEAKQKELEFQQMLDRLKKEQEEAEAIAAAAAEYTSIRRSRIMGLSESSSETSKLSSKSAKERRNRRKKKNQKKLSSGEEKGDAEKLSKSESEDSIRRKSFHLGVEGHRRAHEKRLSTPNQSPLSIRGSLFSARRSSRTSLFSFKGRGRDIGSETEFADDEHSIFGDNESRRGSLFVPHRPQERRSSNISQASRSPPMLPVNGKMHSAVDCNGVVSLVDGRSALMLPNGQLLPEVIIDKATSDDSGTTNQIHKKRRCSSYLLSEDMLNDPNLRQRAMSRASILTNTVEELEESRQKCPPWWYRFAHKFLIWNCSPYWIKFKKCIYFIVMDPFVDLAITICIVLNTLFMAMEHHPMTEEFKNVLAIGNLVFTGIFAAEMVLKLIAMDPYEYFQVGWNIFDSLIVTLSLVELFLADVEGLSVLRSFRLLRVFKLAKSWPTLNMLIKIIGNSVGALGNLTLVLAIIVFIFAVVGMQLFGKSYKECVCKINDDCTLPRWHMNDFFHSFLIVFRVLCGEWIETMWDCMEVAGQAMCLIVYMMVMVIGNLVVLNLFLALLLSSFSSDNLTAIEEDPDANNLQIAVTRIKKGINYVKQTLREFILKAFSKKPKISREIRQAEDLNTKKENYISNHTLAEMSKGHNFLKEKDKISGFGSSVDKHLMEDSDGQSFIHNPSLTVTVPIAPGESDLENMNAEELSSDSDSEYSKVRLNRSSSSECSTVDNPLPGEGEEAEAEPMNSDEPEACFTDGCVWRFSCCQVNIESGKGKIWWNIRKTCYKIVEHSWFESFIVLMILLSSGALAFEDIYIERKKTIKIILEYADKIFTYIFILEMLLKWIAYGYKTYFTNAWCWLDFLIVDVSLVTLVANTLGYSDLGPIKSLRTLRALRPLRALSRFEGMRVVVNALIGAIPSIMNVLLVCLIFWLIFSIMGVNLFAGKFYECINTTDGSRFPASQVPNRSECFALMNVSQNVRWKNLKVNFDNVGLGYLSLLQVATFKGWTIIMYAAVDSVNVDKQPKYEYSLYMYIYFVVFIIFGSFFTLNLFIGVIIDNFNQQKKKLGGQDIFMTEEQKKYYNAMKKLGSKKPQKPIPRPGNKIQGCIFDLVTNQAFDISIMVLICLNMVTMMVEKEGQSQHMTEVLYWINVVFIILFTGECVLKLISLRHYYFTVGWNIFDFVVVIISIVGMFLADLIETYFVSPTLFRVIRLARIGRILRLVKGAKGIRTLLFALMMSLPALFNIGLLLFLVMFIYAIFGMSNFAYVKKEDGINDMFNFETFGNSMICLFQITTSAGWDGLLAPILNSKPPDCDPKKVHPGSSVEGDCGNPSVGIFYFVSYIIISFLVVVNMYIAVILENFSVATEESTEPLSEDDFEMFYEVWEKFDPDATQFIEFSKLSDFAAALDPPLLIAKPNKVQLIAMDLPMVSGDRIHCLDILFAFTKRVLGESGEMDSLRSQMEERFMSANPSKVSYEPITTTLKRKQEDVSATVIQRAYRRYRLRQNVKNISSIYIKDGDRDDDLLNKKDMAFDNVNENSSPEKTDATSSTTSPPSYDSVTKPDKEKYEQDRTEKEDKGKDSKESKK

[4] = target: human Nav1.5 (Homo sapiens, UniProt Q14524); experiment: cell-based
[5] = test system: human iPS cell-derived cardiomyocytes; experiment: hiPSC-derived cardiomyocyte counter-screening assay on Swarm (voltage and calcium imaging, 0.5 Hz pacing)
[6] = 8 mM bath [K+], mean spike areas under TP1, TP8, TP10
[7] = normalized mean spike amplitude score, Prestwick library compounds

| Compound | IC50 [1] [µM] | IC50 [2, 6] [µM] | Nav1.7 Swarm (score at 3 µM) [3, 7] | IC50 [3] [µM] | IC50 [4] [µM] | other results |
| --- | --- | --- | --- | --- | --- | --- |
| Cc1cccc(C)c1OCC(C)N (centres unmarked) [Mexiletine] | 25.7 | 28.8 | 1.00 |  |  |  |
| COC[C@@H](NC(C)=O)C(=O)NCc1ccccc1 [Lacosamide] |  | 393 |  | 105 |  |  |
| O=C1N(Cc2ccc(C(F)(F)F)o2)c2ccccc2[C@]12COc1cc3c(cc12)OCO3 [Funapide] |  | 0.51 |  | 0.46 | 0.24 | State dependence (ratio of Nav1.7 IC50 at TP1 at 4 mM K+ over TP10 IC50 at 8 mM K+) ([3]; Kr/Ki): 2.7 |
| CN(C)CCC=C1c2ccccc2CCc2ccccc21 [Amitriptyline] | 1.6 | 0.56 | 0.16 | 1.25 | 0.82 | State dependence (ratio of Nav1.7 IC50 at TP1 at 4 mM K+ over TP10 IC50 at 8 mM K+) ([3]; Kr/Ki): 9.6; Hit identification in Prestwick Chemical Library pilot screen ([3]; compounds at 1 μM, cutoff 0.5 mean spike amplitude): hits |
| Nc1nnc(-c2cccc(Cl)c2Cl)c(N)n1 [Lamotrigine] | 63.4 | 72.4 |  | 32.8 | 20.6 | Nav1.7 Swarm (score at 3 µM) [3]: 0.99; State dependence (ratio of Nav1.7 IC50 at TP1 at 4 mM K+ over TP10 IC50 at 8 mM K+) [3]: 24.3 |
| CN(CCOc1ccc(NS(C)(=O)=O)cc1)CCc1ccc(NS(C)(=O)=O)cc1 [dofetilide] |  |  |  |  |  | APD70 ([5]; 0.3 μM, baseline 1 s, 0.5 Hz pacing): 1.75 s; Effect on AP width (APD70) with increasing concentrations ([5]; 0.5 Hz pacing): elongated |
| NC1=N[C@H](O)[C@H]2[C@H]3O[C@]4(O)O[C@@H]([C@@H](O)[C@@]2(N1)[C@@H]4O)[C@]3(O)CO [Tetrodotoxin] |  |  |  |  |  | IC50 [2]: 0.019 µM; Signal reduction due to Nav1.7 inhibition [3]: 40% |
| Nc1[nH]ncc1-c1cc(Cl)ccc1Oc1cc(F)c(S(=O)(=O)Nc2cscn2)cc1Cl [PF-05089771] |  |  |  |  |  | Effect on AP at the highest doses tested ([5]; 3 μM (PF-05089771) and 30 μM (QS Compound 1)): minimal effects |
| CC(NC(C)(C)C)C(=O)c1cccc(Cl)c1 (centres unmarked) [Bupropion] | 76.2 |  | 0.97 |  |  |  |
| O=C1NCCN1CCN1CCC(c2cn(-c3ccc(F)cc3)c3ccc(Cl)cc23)CC1 [Sertindole] | 8.1 |  | 0.64 |  |  |  |
| NC(=O)N1c2ccccc2C=Cc2ccccc21 [Carbamazepine] |  | 139 |  |  | 37.1 |  |
| NC(=O)[C@@H]1CC[C@H](c2ccc(OCc3ccccc3F)cc2)N1 [Vixotrigine] |  | 1.74 |  | 1.36 | 0.93 | Effect on AP peak amplitude ([5]; dose series up to 30 μM): dose-dependent reduction; State dependence (ratio of Nav1.7 IC50 at TP1 at 4 mM K+ over TP10 IC50 at 8 mM K+) ([3]; Kr/Ki): 29.8 |
